From publication PMC3422614 (Biochemistry, 2011)
Entries after “also recorded” stand apart in the source; their conditions may differ. Like-named read-outs stand apart in the source and are kept apart here. Where no end group is shown, it is not given here.

Assays:
[1] = target: T1, ERK2 (Rattus norvegicus, UniProt P63086); test: Dose-response effect of docking ligands on ERK2 phosphorylation of Sub-D; type: biochemical
[2] = target: T1, ERK2; test: Dose-response effect of docking ligands on ERK2 phosphorylation of Sub-F; type: biochemical
[3] = target: T1, ERK2; type: biochemical
[4] = target: T1, ERK2; test: Kinetics of Sub-F phosphorylation by ERK2 at saturating Lig-D; type: biochemical
[5] = target: T1, ERK2; test: Inhibition patterns for the phosphorylation of Sub-F by ERK2; type: biochemical
[6] = target: T1, ERK2; test: Inhibition patterns for the phosphorylation of Sub-D by ERK2; type: biochemical
[7] = test system: ERK•Ets-1 complex; conditions: cited from earlier work
[8] = target: T1, ERK2; conditions: protein substrate; cited from earlier work

T1 sequence (P63086 whole entry): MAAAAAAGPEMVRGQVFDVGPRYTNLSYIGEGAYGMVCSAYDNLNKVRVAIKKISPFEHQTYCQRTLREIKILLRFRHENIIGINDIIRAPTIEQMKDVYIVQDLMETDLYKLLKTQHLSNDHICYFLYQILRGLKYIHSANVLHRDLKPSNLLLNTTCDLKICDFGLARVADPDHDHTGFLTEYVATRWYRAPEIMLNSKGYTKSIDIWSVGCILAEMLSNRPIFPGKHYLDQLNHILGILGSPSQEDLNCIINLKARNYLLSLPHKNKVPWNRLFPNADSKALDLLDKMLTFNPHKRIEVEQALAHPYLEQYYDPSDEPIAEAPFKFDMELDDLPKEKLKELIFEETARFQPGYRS

CC(=O)N[C@@H](Cc1ccccc1)C(=O)N[C@@H](CCC(N)=O)C(=O)N[C@@H](CCCNC(=N)N)C(=O)N[C@@H](CCCCN)C(=O)N[C@H](C(=O)N[C@@H](CC(C)C)C(=O)N[C@@H](CCC(N)=O)C(=O)N[C@@H](CCCNC(=N)N)C(=O)N[C@@H](CCCNC(=N)N)C(=O)N[C@@H](CC(N)=O)C(=O)N[C@@H](CC(C)C)C(=O)N[C@@H](CCCCN)C(=O)NCC(=O)N[C@@H](CC(C)C)C(=O)N[C@@H](CC(N)=O)C(=O)N[C@@H](CC(C)C)C(=O)N[C@@H](CC(N)=O)C(=O)N[C@@H](CC(C)C)C(N)=O)[C@@H](C)O [Lig-D]
IC50 [1]: 30 ± 4 µM | EC50 [2]: 10 ± 8 µM

YAEPLTPRILAKWEWPA-NH2 [Sub-F]
Ki [3]: 3.3 ± 1.1 µM | Ki [4]: 5 ± 2 µM

Nc1ncnc2c1ncn2[C@@H]1O[C@H](COP(=O)([O-])OP(=O)([O-])O)[C@@H](O)[C@H]1O.[Mg+2] [MgADP]
Mechanism of inhibition ([5]; varied MgATP, fixed Sub-F): competitive pattern for towards MgATP^2- | Mechanism of inhibition ([5]; varied Sub-F, fixed MgATP): Noncompetitive | Mechanism of inhibition ([6]; varied MgATP, fixed Sub-D): competitive pattern for towards MgATP^2- | Mechanism of inhibition ([6]; varied Sub-D, fixed MgATP): Noncompetitive

Ac-YAPRAPAKLAFQFPSR-NH2 [Lig-F]
Mechanism of inhibition ([5]; varied MgATP, fixed Sub-F): Noncompetitive | Mechanism of inhibition ([5]; varied Sub-F, fixed MgATP): Competitive | Effect on Sub-D phosphorylation (kobs) ([1]; Fig. 5A, Sub-D 3 μM, 1 mM MgATP, increasing ligand): no effect on kobs for the phosphorylation of Sub-D; also recorded: no effect on the ability of ERK2 to phosphorylate Sub-D | IC50 [2]: 35 ± 3 µM | Effect on Sub-F phosphorylation (kobs) ([2]; Fig. 5B, Sub-F 15 μM, 1 mM MgATP, increasing ligand): competitively inhibits Sub-F

B1: Ets: murine (His6-tagged)Ets1(1-138), protein substrate of ERK2 (protein, UniProt P27577 1-138, looked up, fragment)
chain: MKAAVDLKPTLTIIKTEKVDLELFPSPDMECADVPLLTPSSKEMMSQALKATFSGFTKEQQRLGIPKDPRQWTETHVRDWVMWAVNEFSLKGVDFQKFCMSGAALCALGKECFLELAPDFVGDILWEHLEILQKEDVK
modifications: His6 tag
kcat ([3]; Table 1, fit to eqn. 2, 27 °C, pH 7.4, 2 nM ERK2): 17 ± 1 S^−1 | stabilization of the ERK•Ets-1 complex by Ets-1 N-terminus docking to the DRS [7]: approximately 10 fold | Kinetic mechanism of phosphorylation [8]: random-order mechanism | kcat/Km [8]: 6e+06 M⁻¹ s⁻¹
